From ChEMBL document CHEMBL3044778, “Lethal and sublethal effects of buprofezin and imidacloprid on the whitefly parasitoid Encarsia inaron (Hymenoptera: Aphelinidae)” (2012)
In brackets after ≈: the same amount, converted by molar mass. Activity calls are given as the source filed them. No cut-off for these calls is given here.

Columns and labels:
Encarsia inaron [1] = test: Insecticidal activity against Encarsia inaron treated at pupal stages assessed as finite rate increase at 2000 ppm; format: functional, organism-based; details: Pupal stage
Encarsia inaron [2] = test: Insecticidal activity against Encarsia inaron treated at adult stages assessed as mean generation time at 2000 ppm; format: functional, organism-based
Encarsia inaron [3] = test: Insecticidal activity against Encarsia inaron treated at adult stages assessed as increase in net reproductive rate at 2000 ppm; format: functional, organism-based
Encarsia inaron [4] = test: Insecticidal activity against Encarsia inaron treated at larval stages assessed as mean generation time at 31.25 ppm; format: functional, organism-based; details: Larval stage
Encarsia inaron [5] = test: Insecticidal activity against Encarsia inaron treated at pupal stages at 2000 ppm assessed as insect longevity (reference value: 8.7 days); format: functional, Pupal stage
Encarsia inaron [6] = test: Insecticidal activity against Encarsia inaron treated at adult stages at 2000 ppm assessed as sex ratio (reference value: 0.72 no unit); format: functional
Encarsia inaron [7] = test: Insecticidal activity against Encarsia inaron infested cucumber plants assessed as adult parasitoid emergence from parasitised host nymphs treated at larval stages at 400 g ai/L SC measured 10 days post compound treatment (reference value: 79.60 %); format: functional, Larval stage
Encarsia inaron [8] = test: Insecticidal activity against Encarsia inaron treated at pupal stages assessed as mean generation time at 2000 ppm; format: functional, organism-based; details: Pupal stage
Encarsia inaron [9] = test: Insecticidal activity against Encarsia inaron treated at larval stages assessed as intrinsic rate of increase at 31.25 ppm; format: functional, organism-based; details: Larval stage
Encarsia inaron [10] = test: Insecticidal activity against Encarsia inaron treated at larval stages at 31.25 ppm assessed as sex ratio (reference value: 0.72 no unit); format: functional, Larval stage
Encarsia inaron [11] = test: Insecticidal activity against Encarsia inaron treated at pupal stages at 2000 ppm assessed as sex ratio (reference value: 0.68 no unit); format: functional, Pupal stage
Encarsia inaron [12] = test: Insecticidal activity against Encarsia inaron treated at larval stages assessed as increase in net reproductive rate at 31.25 ppm; format: functional, organism-based; details: Larval stage
Encarsia inaron [13] = test: Insecticidal activity against Encarsia inaron treated at larval stages assessed as finite rate of increase at 31.25 ppm; format: functional, organism-based; details: Larval stage
Encarsia inaron [14] = test: Insecticidal activity against Encarsia inaron treated at adult stages at 2000 ppm assessed as insect longevity (reference value: 8.95 days); format: functional
Encarsia inaron [15] = test: Insecticidal activity against Encarsia inaron treated at pupal stages at 2000 ppm assessed as insects eggs level per day (reference value: 2.37 egg/day); format: functional, Pupal stage
Encarsia inaron [16] = test: Insecticidal activity against Encarsia inaron treated at adult stages assessed as finite rate of increase at 2000 ppm; format: functional, organism-based
Encarsia inaron [17] = test: Insecticidal activity against Encarsia inaron treated at pupal stages assessed as intrinsic rate of increase at 2000 ppm; format: functional, organism-based; details: Pupal stage
Encarsia inaron [18] = test: Insecticidal activity against Encarsia inaron treated at adult stages at 2000 ppm assessed as insects eggs level per day (reference value: 2.33 egg/day); format: functional
Encarsia inaron [19] = test: Insecticidal activity against Encarsia inaron treated at adult stages assessed as doubling time at 2000 ppm; format: functional, organism-based
Encarsia inaron [20] = test: Insecticidal activity against Encarsia inaron treated at pupal stages assessed as net reproductive rate at 2000 ppm; format: functional, organism-based; details: Pupal stage
Encarsia inaron [21] = test: Insecticidal activity against Encarsia inaron treated at adult stages at 2000 ppm assessed as insect total fecundity; format: functional, organism-based
Encarsia inaron [22] = test: Insecticidal activity against Encarsia inaron treated at larval stages at 31.25 ppm assessed as insects eggs level per day (reference value: 2.98 egg/day); format: functional, Larval stage
Encarsia inaron [23] = test: Insecticidal activity against Encarsia inaron treated at larval stages at 31.25 ppm assessed as insect longevity (reference value: 5.60 days); format: functional, Larval stage
Encarsia inaron [24] = test: Insecticidal activity against Encarsia inaron infested cucumber plants assessed as adult parasitoid emergence from parasitised host nymphs treated at pupae stages at 400 g ai/L SC measured 10 days post compound treatment (reference value: 79.60 %); format: functional
Encarsia inaron [25] = test: Insecticidal activity against Encarsia inaron adults reared on compound treated freshly cut cucumber leaves assessed as induction if insect mortality measured 48 hr post compound treatment; format: functional
Encarsia inaron [26] = test: Insecticidal activity against Encarsia inaron treated at pupal stages at 2000 ppm assessed as insect total fecundity; format: functional, organism-based; details: Pupal stage
Encarsia inaron [27] = test: Insecticidal activity against Encarsia inaron treated at adult stages assessed as intrinsic rate of increase at 2000 ppm; format: functional, organism-based
Encarsia inaron [28] = test: Insecticidal activity against Encarsia inaron treated at larval stages at 31.25 ppm assessed as insect total fecundity; format: functional, organism-based; details: Larval stage
Encarsia inaron [29] = test: Insecticidal activity against Encarsia inaron treated at larval stages assessed as mean generation time at 62.5 ppm; format: functional, organism-based; details: Larval stage
Encarsia inaron [30] = test: Insecticidal activity against Encarsia inaron treated at adult stages assessed as finite rate of increase at 23.37 ppm; format: functional, organism-based
Encarsia inaron [31] = test: Insecticidal activity against Encarsia inaron treated at larval stages at 62.5 ppm assessed as sex ratio (reference value: 0.72 no unit); format: functional, Larval stage
Encarsia inaron [32] = test: Insecticidal activity against Encarsia inaron infested cucumber plants assessed as adult parasitoid emergence from parasitised host nymphs treated at pupae stages at 350 g ai/L SC measured 10 days post compound treatment (reference value: 79.60 %); format: functional
Encarsia inaron [33] = test: Insecticidal activity against Encarsia inaron treated at larval stages assessed as intrinsic rate of increase at 62.5 ppm; format: functional, organism-based; details: Larval stage
Encarsia inaron [34] = test: Insecticidal activity against Encarsia inaron infested cucumber plants assessed as adult parasitoid emergence from parasitised host nymphs treated at larval stages at 350 g ai/L SC measured 10 days post compound treatment (reference value: 79.60 %); format: functional, Larval stage
Encarsia inaron [35] = test: Insecticidal activity against Encarsia inaron treated at larval stages at 62.5 ppm assessed as insect longevity (reference value: 5.60 days); format: functional, Larval stage
Encarsia inaron [36] = test: Insecticidal activity against Encarsia inaron treated at pupal stages assessed as intrinsic rate of increase at 62.5 ppm; format: functional, organism-based; details: Pupal stage
Encarsia inaron [37] = test: Insecticidal activity against Encarsia inaron treated at pupal stages assessed as mean generation time at 62.5 ppm; format: functional, organism-based; details: Pupal stage
Encarsia inaron [38] = test: Insecticidal activity against Encarsia inaron treated at adult stages at 23.37 ppm assessed as insect total fecundity; format: functional, organism-based
Encarsia inaron [39] = test: Insecticidal activity against Encarsia inaron treated at pupal stages at 62.5 ppm assessed as sex ratio (reference value: 0.68 no unit); format: functional, Pupal stage
Encarsia inaron [40] = test: Insecticidal activity against Encarsia inaron treated at larval stages assessed as increase in net reproductive rate at 62.5 ppm; format: functional, organism-based; details: Larval stage
Encarsia inaron [41] = test: Insecticidal activity against Encarsia inaron treated at larval stages at 62.5 ppm assessed as insects eggs level per day (reference value: 2.98 egg/day); format: functional, Larval stage
Encarsia inaron [42] = test: Insecticidal activity against Encarsia inaron treated at larval stages assessed as finite rate of increase at 62.5 ppm; format: functional, organism-based; details: Larval stage
Encarsia inaron [43] = test: Insecticidal activity against Encarsia inaron treated at adult stages assessed as mean generation time at 23.37 ppm; format: functional, organism-based
Encarsia inaron [44] = test: Insecticidal activity against Encarsia inaron treated at larval stages at 62.5 ppm assessed as insect total fecundity; format: functional, organism-based; details: Larval stage
Encarsia inaron [45] = test: Insecticidal activity against Encarsia inaron treated at adult stages assessed as intrinsic rate of increase at 23.37 ppm; format: functional, organism-based
Encarsia inaron [46] = test: Insecticidal activity against Encarsia inaron treated at pupal stages assessed as finite rate increase at 62.5 ppm; format: functional, organism-based; details: Pupal stage
Encarsia inaron [47] = test: Insecticidal activity against Encarsia inaron treated at adult stages assessed as doubling time at 23.37 ppm; format: functional, organism-based
Encarsia inaron [48] = test: Insecticidal activity against Encarsia inaron treated at adult stages at 23.37 ppm assessed as insects eggs level per day (reference value: 2.33 egg/day); format: functional
Encarsia inaron [49] = test: Insecticidal activity against Encarsia inaron treated at adult stages assessed as increase in net reproductive rate at 23.37 ppm; format: functional, organism-based
Encarsia inaron [50] = test: Insecticidal activity against Encarsia inaron treated at pupal stages at 62.5 ppm assessed as insect longevity (reference value: 8.7 days); format: functional, Pupal stage
Encarsia inaron [51] = test: Insecticidal activity against Encarsia inaron treated at pupal stages at 62.5 ppm assessed as insects eggs level per day (reference value: 2.37 egg/day); format: functional, Pupal stage
Encarsia inaron [52] = test: Insecticidal activity against Encarsia inaron treated at adult stages at 23.37 ppm assessed as insect longevity (reference value: 8.95 days); format: functional
Encarsia inaron [53] = test: Insecticidal activity against Encarsia inaron treated at adult stages at 23.37 ppm assessed as sex ratio (reference value: 0.72 no unit); format: functional
Encarsia inaron [54] = test: Insecticidal activity against Encarsia inaron treated at pupal stages at 62.5 ppm assessed as insect total fecundity; format: functional, organism-based; details: Pupal stage
Encarsia inaron [55] = test: Insecticidal activity against Encarsia inaron treated at pupal stages assessed as net reproductive rate at 62.5 ppm; format: functional, organism-based; details: Pupal stage

CC(C)N1C(=O)N(c2ccccc2)CS/C1=N\C(C)(C)C [BUPROFEZIN]
Activity (Encarsia inaron [1]): inactive | Activity (Encarsia inaron [2]): inactive | Activity (Encarsia inaron [3]): inactive | Activity (Encarsia inaron [4]): inactive | Time (Encarsia inaron [5]): 8.5 days | Ratio (Encarsia inaron [6]): 0.44 | Activity (Encarsia inaron [7]): 2.6% | Activity (Encarsia inaron [8]): Active | Activity (Encarsia inaron [9]): inactive | Ratio (Encarsia inaron [10]): 0.49 | Ratio (Encarsia inaron [11]): 0.44 | Activity (Encarsia inaron [12]): inactive | Activity (Encarsia inaron [13]): inactive | Time (Encarsia inaron [14]): 8.9 days | Activity (Encarsia inaron [15]): 1.24 day⁻¹ | Activity (Encarsia inaron [16]): inactive | Activity (Encarsia inaron [17]): inactive | Activity (Encarsia inaron [18]): 4.58 day⁻¹ | Activity (Encarsia inaron [19]): inactive | Activity (Encarsia inaron [20]): Active | Activity (Encarsia inaron [21]): inactive | Activity (Encarsia inaron [22]): 3.55 day⁻¹ | Time (Encarsia inaron [23]): 7.05 days | Activity (Encarsia inaron [24]): 63.4% | LC50 (Encarsia inaron [25]): inactive | Activity (Encarsia inaron [26]): inactive | Activity (Encarsia inaron [27]): inactive | Activity (Encarsia inaron [28]): inactive

O=[N+]([O-])/N=C1\NCCN1Cc1ccc(Cl)nc1 [IMIDACLOPRID]
Activity (Encarsia inaron [29]): Active | Activity (Encarsia inaron [30]): inactive | Ratio (Encarsia inaron [31]): 0.54 | Activity (Encarsia inaron [32]): 15% | Activity (Encarsia inaron [33]): Active | Activity (Encarsia inaron [34]): 7% | Time (Encarsia inaron [35]): 13.2 days | Activity (Encarsia inaron [36]): inactive | Activity (Encarsia inaron [37]): Active | Activity (Encarsia inaron [38]): Active | Ratio (Encarsia inaron [39]): 0.59 | Activity (Encarsia inaron [40]): Active | Activity (Encarsia inaron [41]): 5.44 day⁻¹ | Activity (Encarsia inaron [42]): Active | Activity (Encarsia inaron [43]): inactive | Activity (Encarsia inaron [44]): Active | Activity (Encarsia inaron [45]): inactive | Activity (Encarsia inaron [46]): inactive | LC10 (Encarsia inaron [25]): 3.3 ppm | LC90 (Encarsia inaron [25]): 13407 ppm | LC50 (Encarsia inaron [25]; Encarsia inaron, 48 h): 209 µg/mL (≈ 817 µM) | Activity (Encarsia inaron [47]): inactive | Activity (Encarsia inaron [48]): 4.75 day⁻¹ | Activity (Encarsia inaron [49]): inactive | Time (Encarsia inaron [50]): 6.7 days | Activity (Encarsia inaron [51]): 2.77 day⁻¹ | Time (Encarsia inaron [52]): 6.85 days | Ratio (Encarsia inaron [53]): 0.52 | Activity (Encarsia inaron [54]): Active | Activity (Encarsia inaron [55]): Active
